# Test results as given in patent US20060142247A1, “Tricyclic heterocycles” (priority 2004, published 2006).
# Target: T1, Aurora A (Homo sapiens, UniProt O14965)
# T1 construct: C-terminally Histidine4 (His4)-tagged Aurora A full-length protein; His4 (C)
# T1 sequence (O14965 1-403): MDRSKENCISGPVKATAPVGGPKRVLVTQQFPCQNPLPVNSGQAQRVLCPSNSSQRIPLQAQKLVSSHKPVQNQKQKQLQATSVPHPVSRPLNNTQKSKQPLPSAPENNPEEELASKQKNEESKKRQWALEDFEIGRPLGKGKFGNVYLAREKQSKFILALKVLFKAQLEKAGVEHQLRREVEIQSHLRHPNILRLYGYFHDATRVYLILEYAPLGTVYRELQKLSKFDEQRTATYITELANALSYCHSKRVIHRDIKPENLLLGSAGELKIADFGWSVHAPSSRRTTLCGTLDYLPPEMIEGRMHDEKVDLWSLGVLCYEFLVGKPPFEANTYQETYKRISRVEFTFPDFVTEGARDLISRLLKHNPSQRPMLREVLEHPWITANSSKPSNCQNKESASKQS
# Test: IC50 determination for inhibitors of Aurora A (96 MTP-ELISA)
# Assay type: biochemical
# Details: His4-tagged full-length Aurora A 250 ng/ml, PKB-GSK2 200 nM, ATP 4 μM, 90 min room temperature, read-out: IC50 Aurora A kinase inhibition
# Method: Aurora A is a serine threonine kinase involved in spindle assembly and chromosome segregation. The assay is a typically ELISA-type assay where biotinylated substrate (PKB-GSK2) is phosphorylated. Phosphorylation is detected by peroxidase (POD) labelled polyclonal antibody (PAK<M-Ig>S-IgG-POD) and phosphopeptide monoclonal antibody (Mab) (MAK<P-GSK>M-27E5-IgG). The assay is validated for IC50-determination.
# Assay plates: 96-well polystyrene plates, streptavidin-coated,
# Samples: 10 mM in dimethylsulfoxide (DMSO)
# Aurora A-His-4: C-terminally Histidine4 (His4)-tagged Aurora A full-length protein, stock solution 0.7 mg/ml, final conc.: 250 ng/ml
# PKB-GSK2: biotinylated peptide derived from human GSK3-alpha sequence (Biotin-SGRARTSSFAEPGG-CONH2), stock solution 600 μM, final conc.: 200 nM
# PAK<M-Ig>S-IgG-POD: Anti-mouse IgG, horse radish peroxidase(HRP)-linked Antibody, diluted in 3% BSA/PBS-T (1:10000), (Cell Signaling, Cat. No.: 7076)
# MAK<P-GSK>M-27E5-IgG: Phospho-GSK-3-alpha (Ser 21) (27E5) Monoclonal Antibody, stock solution 1.85 mg/ml, diluted in 3% BSA/PBS-T (1:6000), final conc.: 0.31 μg/ml, (Cell Signaling, Cat. No.: 9337B)
# ATP: Adenosine-5′-triphosphate 1 mM, diluted in kinase buffer, (Roche Diagnostics GmbH, Cat. No.: 127531-001,), final conc.: 4 μM
# TRIS: 2-Amino-2-hydroxymethyl-1,3-propoanediol (“tris-(hydroxymethyl)-aminomethane”) (MERCK, Cat. No.: 108382.2500)
# BSA: Bovine Serum Albumin Fraction V, fatty acid free (Roche Diagnostics GmbH, Cat. No. 9100221)
# EDTA Titriplex III (di-Sodium-EDTA di-Hydrate), 120 mM, (MERCK, Cat. No.: 1.08418.1000)
# ABTS buffer: ABTS (2,2′-azino-bis(3-ethylbenzthiazoline-6-sulfonic acid)) 16.7 mg/ml (Roche Diagnostics GmbH, Cat. No.: 1204530) • ABTS tablets: dissolve one ABTS tablet in 50 ml of working solution (ABTS buffer) (Roche Diagnostics GmbH, Cat. No.: 1112422 ) • Tween 20: Polysorbat 20 (Roche Diagnostics GmbH, Cat. No.: 10006394-001) • DTT: 1,4-Dithiothreitol (Roche Diagnostics GmbH, Cat. No.: 197777) • MgCl2×6H2O MERCK, Cat. No.: 105833.1000 • Kinase buffer: 50 mM TRIS, 10 mM MgCl2, 1 mM DTT, 0.1% Tween 20, pH 7.8 PBS-T (=Wash buffer) (PBS-T)10 g/l PBS(Phosphate buffered saline) with 0.033% Tween 20 • 3% BSA/PBS-T: 3% BSA dissolved in PBS-T Method
# This assay is performed in 96-well format for IC50 determination with 5 samples (each with 8 concentrations by twofold testing), 100 μl incubation volume and the following plate layout:
# S samples, with ATP, 1% DMSO, final conc.: a=100 μM, b=20 μM, c=4 μM, d=0.8 μM, e=0.16 μM, f=0.032 μM, g=0.0064 μM, h=0.00128 μM Step/Action • (1) Sample preparation: add 24 μl per well samples (descending sequence) diluted in kinase buffer to assay plate (final conc. for DMSO 1%). • 2. Add directly 16 μl Aurora-A-his-4 diluted in kinase buffer to assay plate. • 3. Add directly 40 μl per well PKB-GSK2/ATP mixture to assay plate, (final conc.: Aurora A=250 ng/ml, GSK2=200 nM, ATP=4 μM). Negative control: without ATP. • 4. Incubate assay plate for exactly 90 min at room temperature. • 5. Stop reaction by adding 20 μl EDTA in all wells. • 6. Wash assay plate 3× with 200 μl washing buffer per well. • 7. Add 100 μl MAK<P-GSK>M27E5-IgG (1:10000) and PAK<M-Ig>S-IgG-POD (1:6000) dissolved in 3% BSA/PBS-T to assay plate per well. • 8. Incubate assay plate for 60 min at room temperature. • 9. Wash assay plate 3× with 200 μl washing buffer per well • 10. Add 100 μl ABTS solution to assay plate per well, incubate for approx. 4 min at RT on MTP shaker. • 11. Measure absorption at 405/492 nm. • 12. Calculate % inhibition as: (1−(Esample−ENC)/(EPC−ENC))×100 1)
# 13. Calculate IC50 using a non-linear curve fit (XLfit software (ID Business Solution Ltd., Guilford, Surrey, UK))
row,SMILES,IC50 [nM]
1,"C=CCN1C(=O)C(C)(C)c2cc3nc(-c4n[nH]c5ccccc45)[nH]c3cc21 [Example 2, 5-Allyl-2-(1H-indazol-3-yl)-7,7-dimethyl-5,7-dihydro-3H-imidazo[4,5-f]indol-6-one]",1 to 100
2,"CCN1C(=O)C(C)(C)c2cc3nc(-c4n[nH]c5ccccc45)[nH]c3cc21 [Example 3, 5-Ethyl-2-(1H-indazol-3-yl)-7,7-dimethyl-5,7-dihydro-3H-imidazo[4,5-f]indol-6-one]",1 to 100
3,"CCCN1C(=O)C(C)(C)c2cc3nc(-c4n[nH]c5ccccc45)[nH]c3cc21 [Example 5, 2-(1H-indazol-3-yl)-7,7-dimethyl-5-propyl-5,7-dihydro-3H-imidazo[4,5-f]indol-6-one]",1 to 100
4,"CC(C)N1C(=O)C(C)(C)c2cc3nc(-c4n[nH]c5ccccc45)[nH]c3cc21 [Example 6, 2-(1H-indazol-3-yl)-5-isopropyl-7,7-dimethyl-5,7-dihydro-3H-imidazo[4,5-f]indol-6-one]",28
5,"CC1(C)C(=O)N(CCCN2CCOCC2)c2cc3[nH]c(-c4n[nH]c5ccccc45)nc3cc21 [Example 7, 2-(1H-indazol-3-yl)-7,7-dimethyl-5-(3-morpholin-4-yl-propyl)-5,7-dihydro-3H-imidazo[4,5-f]indol-6-one]",14
6,"CC1(C)C(=O)Nc2cc3[nH]c(-c4n[nH]c5ccccc45)nc3cc21 [Example 8, 2-(1H-indazol-3-yl)-7,7-dimethyl-5,7-dihydro-3H-imidazo[4,5-f]indol-6-one]",1 to 100
7,"O=C1Nc2cc3nc(-c4n[nH]c5ccccc45)[nH]c3cc2C12CCCC2 [Example 9, 2-(1H-indazol-3-yl)-spiro[7,7-cyclopentan-5,7-dihydro-3H-imidazo[4,5-f]indol]-6-one]",100 to 250
8,"CC1C(=O)Nc2cc3[nH]c(-c4n[nH]c5ccccc45)nc3cc21 (centres unmarked) [Example 11, 2-(1H-Indazol-3-yl)-7-methyl-5,7-dihydro-3H-imidazo[4,5-f]indol-6-one]",100 to 250
9,"CCC1C(=O)Nc2cc3nc(-c4[nH]nc5ccccc45)[nH]c3cc21 (centres unmarked) [Example 13, 7-Ethyl-2-(1H-indazol-3-yl)-5,7-dihydro-3H-imidazo[4,5-f]indol-6-one]",100 to 250
10,"C=CCCN1C(=O)C(C)(C)c2cc3nc(-c4n[nH]c5ccccc45)[nH]c3cc21 [Example 15, 5-But-3-enyl-2-(1H-indazol-3-yl)-7,7-dimethyl-5,7-dihydro-3H-imidazo[4,5-f]indol-6-one]",1 to 100
11,"COCCOCCN1C(=O)C(C)(C)c2cc3nc(-c4n[nH]c5ccccc45)[nH]c3cc21 [Example 17, 2-(1H-Indazol-3-yl)-5-[2-(2-methoxy-ethoxy)-ethyl]-7,7-dimethyl-5,7-dihydro-3H-imidazo[4,5-f]indol-6-one]",1 to 100
12,"CC1(C)C(=O)N(CCCN2CCCCC2)c2cc3[nH]c(-c4n[nH]c5ccccc45)nc3cc21 [Example 19, 2-(1H-Indazol-3-yl)-7,7-dimethyl-5-(3-piperidin-1-yl-propyl)-5,7-dihydro-3H-imidazo[4,5-f]indol-6-one]",1 to 100
13,"CN(C)CCCN1C(=O)C(C)(C)c2cc3nc(-c4n[nH]c5ccccc45)[nH]c3cc21 [Example 21, 5-(3-Dimethylamino-propyl)-2-(1H-indazol-3-yl)-7,7-dimethyl-5,7-dihydro-3H-imidazo[4,5-f]indol-6-one]",1 to 100
14,"CCOC(=O)CN1C(=O)C(C)(C)c2cc3nc(-c4n[nH]c5ccccc45)[nH]c3cc21 [Example 23, [2-(1H-Indazol-3-yl)-7,7-dimethyl-6-oxo-6,7-dihydro-3H-imidazo[4,5-f]indol-5-yl]-acetic acid ethyl ester]",1 to 100
15,"CC1(C)C(=O)N(CC#N)c2cc3[nH]c(-c4n[nH]c5ccccc45)nc3cc21 [Example 24, [2-(1H-Indazol-3-yl)-7,7-dimethyl-6-oxo-6,7-dihydro-3H-imidazo[4,5-f]indol-5-yl]-acetonitrile]",1 to 100
16,"CC1(C)C(=O)N(Cc2ccccc2)c2cc3[nH]c(-c4n[nH]c5ccccc45)nc3cc21 [Example 26, 5-Benzyl-2-(1H-indazol-3-yl)-7,7-dimethyl-5,7-dihydro-3H-imidazo[4,5-f]indol-6-one]",100 to 250
17,"CC1(C)C(=O)N(Cc2ccc(S(C)(=O)=O)cc2)c2cc3[nH]c(-c4n[nH]c5ccccc45)nc3cc21 [Example 27, 2-(1H-Indazol-3-yl)-5-(4-methanesulfonyl-benzyl)-7,7-dimethyl-5,7-dihydro-3H-imidazol[4,5-f]indol-6-one]",1 to 100
18,"CC1(C)C(=O)N(CCO[Si](C)(C)C(C)(C)C)c2cc3[nH]c(-c4n[nH]c5ccccc45)nc3cc21 [Example 28, 5-[2-(tert-Butyl-dimethyl-silanyloxy)-ethyl]-2-(1H-indazol-3-yl)-7,7-dimethyl-5,7-dihydro-3H-imidazo[4,5-f]indol-6-one]",1 to 100
19,"CC1(C)C(=O)N(CCO)c2cc3[nH]c(-c4n[nH]c5ccccc45)nc3cc21 [Example 34, 5-(2-Hydroxy-ethyl)-2-(1H-indazol-3-yl)-7,7-dimethyl-5,7-dihydro-3H-imidazo[4,5-f]indol-6-one]",1 to 100
20,"CC1(C)C(=O)N(CC(O)CO)c2cc3[nH]c(-c4n[nH]c5ccccc45)nc3cc21 (centres unmarked) [Example 35, 5-(2,3-Dihydroxy-propyl)-2-(1H-indazol-3-yl)-7,7-dimethyl-5,7-dihydro-3H-imidazo [4,5-f]indol-6-one]",1 to 100
21,"CC1(C)C(=O)N(CC(=O)O)c2cc3[nH]c(-c4n[nH]c5ccccc45)nc3cc21 [Example 36, [2-(1H-Indazol-3-yl)-7,7-dimethyl-6-oxo-6,7-dihydro-3H-imidazo[4,5-f]indol-5-yl]-acetic acid]",1 to 100
22,"CC1(C)C(=O)N(CC(N)=O)c2cc3[nH]c(-c4n[nH]c5ccccc45)nc3cc21 [Example 37, 2-[2-(1H-Indazol-3-yl)-7,7-dimethyl-6-oxo-6,7-dihydro-3H-imidazo[4,5-f]indol-5-yl]-acetamide]",1 to 100
23,"CC1(C)C(=O)N(CC(=O)NCc2ccccc2)c2cc3[nH]c(-c4n[nH]c5ccccc45)nc3cc21 [Example 39, N-Benzyl-2-[2-(1H-indazol-3-yl)-7,7-dimethyl-6-oxo-6,7-dihydro-3H-imidazo[4,5-f]indol-5-yl]-acetamide]",1 to 100
